Common to all, as to experiment: KINOMEscan competition binding
Experiment [1] deals with BMPR1A (Homo sapiens, UniProt P36894). The conditions noted are these: read-out: %Inh BMPR1A.
Experiment [2] has as its target T1, BRSK2 (Homo sapiens, UniProt Q8IWQ3).
T1 sequence (Q8IWQ3 1-736): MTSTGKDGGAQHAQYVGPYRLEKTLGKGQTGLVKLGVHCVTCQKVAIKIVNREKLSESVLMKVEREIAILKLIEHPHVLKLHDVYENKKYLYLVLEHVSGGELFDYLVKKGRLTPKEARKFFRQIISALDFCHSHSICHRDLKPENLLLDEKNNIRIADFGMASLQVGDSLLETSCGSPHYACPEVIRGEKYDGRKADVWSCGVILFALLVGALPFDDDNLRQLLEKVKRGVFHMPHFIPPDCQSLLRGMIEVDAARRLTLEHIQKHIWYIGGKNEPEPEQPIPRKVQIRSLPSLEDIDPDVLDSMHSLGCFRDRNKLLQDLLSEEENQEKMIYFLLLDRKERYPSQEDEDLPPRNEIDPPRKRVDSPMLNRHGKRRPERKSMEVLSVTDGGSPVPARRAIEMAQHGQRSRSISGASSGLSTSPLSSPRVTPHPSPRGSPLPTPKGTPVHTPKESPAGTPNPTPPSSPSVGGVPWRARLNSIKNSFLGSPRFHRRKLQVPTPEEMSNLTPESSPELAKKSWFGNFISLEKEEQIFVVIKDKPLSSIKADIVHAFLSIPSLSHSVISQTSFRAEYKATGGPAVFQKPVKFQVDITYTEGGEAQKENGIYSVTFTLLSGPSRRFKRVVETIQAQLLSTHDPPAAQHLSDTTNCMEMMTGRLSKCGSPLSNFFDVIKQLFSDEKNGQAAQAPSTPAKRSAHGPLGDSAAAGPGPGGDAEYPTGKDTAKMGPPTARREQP
The note with it: read-out: %Inh BRSK2.

Experiment [3] deals with DAPK2 (Homo sapiens, UniProt Q9UIK4). The conditions noted are these: read-out: %Inh DAPK2.
The target in experiment [4] is T2, EPHA6 (Homo sapiens, UniProt Q9UF33).
T2 sequence (Q9UF33 23-1036): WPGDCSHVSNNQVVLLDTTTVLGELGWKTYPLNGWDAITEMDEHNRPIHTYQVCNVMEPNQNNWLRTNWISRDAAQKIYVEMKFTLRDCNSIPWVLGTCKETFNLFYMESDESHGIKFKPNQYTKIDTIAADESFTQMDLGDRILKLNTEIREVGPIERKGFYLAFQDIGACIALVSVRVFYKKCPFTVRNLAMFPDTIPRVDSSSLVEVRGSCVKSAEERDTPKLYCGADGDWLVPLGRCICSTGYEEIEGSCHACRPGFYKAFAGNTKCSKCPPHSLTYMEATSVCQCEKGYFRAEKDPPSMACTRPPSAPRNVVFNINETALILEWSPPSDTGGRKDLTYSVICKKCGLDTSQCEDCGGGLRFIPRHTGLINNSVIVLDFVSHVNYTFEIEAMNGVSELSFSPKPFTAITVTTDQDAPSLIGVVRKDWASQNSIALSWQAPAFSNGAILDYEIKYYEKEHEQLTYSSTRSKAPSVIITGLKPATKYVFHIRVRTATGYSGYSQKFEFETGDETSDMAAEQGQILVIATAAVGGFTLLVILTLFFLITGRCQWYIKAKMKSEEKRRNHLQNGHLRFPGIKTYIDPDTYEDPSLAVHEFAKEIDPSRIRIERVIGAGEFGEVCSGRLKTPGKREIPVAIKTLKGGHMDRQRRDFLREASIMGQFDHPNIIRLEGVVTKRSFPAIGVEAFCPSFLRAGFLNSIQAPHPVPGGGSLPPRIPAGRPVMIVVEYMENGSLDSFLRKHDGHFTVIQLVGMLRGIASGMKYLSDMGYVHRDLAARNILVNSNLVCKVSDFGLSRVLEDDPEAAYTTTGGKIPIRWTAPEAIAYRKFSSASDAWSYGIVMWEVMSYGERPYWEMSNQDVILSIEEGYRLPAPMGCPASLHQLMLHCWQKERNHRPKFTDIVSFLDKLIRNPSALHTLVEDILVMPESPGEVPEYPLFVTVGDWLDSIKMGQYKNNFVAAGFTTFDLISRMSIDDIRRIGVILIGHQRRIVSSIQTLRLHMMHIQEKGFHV
The note with it: read-out: %Inh EPHA6.

Experiment [5] concerns the target T3, EPHB1 (Homo sapiens, UniProt P54762).
T3 sequence (P54762 18-984): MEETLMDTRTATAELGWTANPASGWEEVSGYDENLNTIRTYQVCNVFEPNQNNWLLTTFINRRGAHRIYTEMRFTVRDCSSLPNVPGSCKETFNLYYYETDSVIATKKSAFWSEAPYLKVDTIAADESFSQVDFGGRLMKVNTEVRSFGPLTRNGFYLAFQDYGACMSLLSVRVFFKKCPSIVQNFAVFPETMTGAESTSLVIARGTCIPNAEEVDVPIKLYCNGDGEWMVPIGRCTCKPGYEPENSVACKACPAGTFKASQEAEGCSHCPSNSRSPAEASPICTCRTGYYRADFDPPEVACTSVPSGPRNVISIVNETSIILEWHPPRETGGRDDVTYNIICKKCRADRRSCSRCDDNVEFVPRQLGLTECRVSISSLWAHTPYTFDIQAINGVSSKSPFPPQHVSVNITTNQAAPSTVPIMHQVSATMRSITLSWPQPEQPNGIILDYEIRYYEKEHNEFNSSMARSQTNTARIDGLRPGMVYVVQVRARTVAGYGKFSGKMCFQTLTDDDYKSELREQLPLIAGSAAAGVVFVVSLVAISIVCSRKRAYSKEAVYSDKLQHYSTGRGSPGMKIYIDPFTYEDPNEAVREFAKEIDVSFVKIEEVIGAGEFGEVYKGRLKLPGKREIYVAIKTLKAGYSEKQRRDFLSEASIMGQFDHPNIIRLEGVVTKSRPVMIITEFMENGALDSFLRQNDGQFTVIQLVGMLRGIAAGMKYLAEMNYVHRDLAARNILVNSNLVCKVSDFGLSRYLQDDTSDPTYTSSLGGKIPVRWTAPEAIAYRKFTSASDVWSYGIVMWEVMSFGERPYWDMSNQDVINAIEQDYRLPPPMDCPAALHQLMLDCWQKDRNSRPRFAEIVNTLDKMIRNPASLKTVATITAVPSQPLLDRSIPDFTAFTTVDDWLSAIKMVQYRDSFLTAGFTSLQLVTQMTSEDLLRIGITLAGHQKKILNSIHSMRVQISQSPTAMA
The conditions noted are these: read-out: %Inh EPHB1.

Experiment [6] has as its target ERK4 (Homo sapiens, UniProt P31152). The note with it: read-out: %Inh ERK4.

Molecules are shown by their SMILES.

Chain of DAPK2 (Q9UIK4 whole entry): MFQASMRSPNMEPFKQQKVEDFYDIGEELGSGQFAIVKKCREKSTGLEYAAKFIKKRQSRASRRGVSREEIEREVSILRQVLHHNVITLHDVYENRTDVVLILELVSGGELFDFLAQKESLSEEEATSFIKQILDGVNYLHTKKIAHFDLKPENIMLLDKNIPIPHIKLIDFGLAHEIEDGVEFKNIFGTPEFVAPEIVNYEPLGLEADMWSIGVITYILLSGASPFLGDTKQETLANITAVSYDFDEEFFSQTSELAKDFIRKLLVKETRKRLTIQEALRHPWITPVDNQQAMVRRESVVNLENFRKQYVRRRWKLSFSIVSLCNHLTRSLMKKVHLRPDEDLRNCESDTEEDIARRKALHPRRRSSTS
Chain of ERK4 (P31152 whole entry): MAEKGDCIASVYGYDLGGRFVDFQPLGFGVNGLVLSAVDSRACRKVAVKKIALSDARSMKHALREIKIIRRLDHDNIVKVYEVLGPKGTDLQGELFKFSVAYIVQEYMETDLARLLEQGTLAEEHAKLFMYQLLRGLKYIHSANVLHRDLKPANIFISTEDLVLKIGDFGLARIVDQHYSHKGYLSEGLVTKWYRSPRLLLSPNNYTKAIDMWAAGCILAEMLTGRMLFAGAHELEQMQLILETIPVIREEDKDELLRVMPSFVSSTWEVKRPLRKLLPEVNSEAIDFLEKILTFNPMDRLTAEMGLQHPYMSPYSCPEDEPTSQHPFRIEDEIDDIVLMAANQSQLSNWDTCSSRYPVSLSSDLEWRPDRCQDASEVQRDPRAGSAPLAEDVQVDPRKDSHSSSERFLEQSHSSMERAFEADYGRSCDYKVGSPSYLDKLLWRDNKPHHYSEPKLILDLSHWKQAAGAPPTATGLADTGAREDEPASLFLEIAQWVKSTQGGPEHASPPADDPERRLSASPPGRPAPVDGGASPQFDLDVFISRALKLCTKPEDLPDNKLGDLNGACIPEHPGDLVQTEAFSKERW
Chain of BMPR1A (P36894 24-532): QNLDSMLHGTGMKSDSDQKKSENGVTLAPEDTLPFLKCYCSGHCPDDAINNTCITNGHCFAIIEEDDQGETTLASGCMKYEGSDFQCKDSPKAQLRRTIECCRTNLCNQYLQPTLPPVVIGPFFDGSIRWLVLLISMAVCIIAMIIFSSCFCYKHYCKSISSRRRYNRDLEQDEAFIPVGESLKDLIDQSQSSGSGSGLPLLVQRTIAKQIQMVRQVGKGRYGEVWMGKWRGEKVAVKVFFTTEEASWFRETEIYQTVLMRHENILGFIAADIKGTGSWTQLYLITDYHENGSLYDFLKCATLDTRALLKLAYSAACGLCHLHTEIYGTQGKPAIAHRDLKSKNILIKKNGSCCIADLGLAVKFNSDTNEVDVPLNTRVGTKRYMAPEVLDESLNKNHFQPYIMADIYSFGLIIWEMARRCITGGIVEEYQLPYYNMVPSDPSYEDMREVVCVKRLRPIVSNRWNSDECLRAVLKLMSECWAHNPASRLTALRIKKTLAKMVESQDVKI

With `COc1cccc(OC)c1C(=O)Nc1cccc(-c2nn3ccccc3c2-c2ccnc(Nc3cccc(F)c3)n2)c1` [UNC10225310A], the inhibition at 1 µM in experiment [1] came to 9%; in experiment [2], 16%; in experiment [3], 6%; in experiment [4] it was 11%; in experiment [5] it was 100%; in experiment [6], 9%.
`O=c1cc(N2CCOCC2)nc2n(Cc3cccc(Cl)c3Cl)c(C3CC3)nn12` [UNC10225469A]: the inhibition at 1 µM is 15% in experiment [1]; 0% in experiment [2]; 12% in experiment [3]; 0% in experiment [4]; 0% in experiment [5]; 0% in experiment [6].
Consider `Cn1cc(-c2cnc(N)c3c(-c4ccc5c(c4)CCN5C(=O)Cc4ccccc4)csc23)cn1` [UNC10225012A], for which the inhibition at 1 µM in experiment [1] turned out to be 1%; in experiment [2] it was 7%; in experiment [3], 21%; in experiment [4], 11%; in experiment [5], 6%; in experiment [6], 0%.
As for `CS(=O)(=O)Cc1ccc(Nc2nccc(-c3c(-c4cccc(NC(=O)C5CCCCC5)c4)nn4ncccc34)n2)cc1` [UNC10225159A], the inhibition at 1 µM in experiment [1] was determined as 0%; in experiment [2], 0%; in experiment [3], 9%; in experiment [4] it was 2%; in experiment [5], 2%; in experiment [6], 3%.
Regarding `Cc1ccc(NC(=O)Nc2cccc(C(F)(F)F)c2)cc1` [UNC10225187A], the inhibition at 1 µM came to 94.6% in experiment [1]; 0% in experiment [2]; 3% in experiment [3]; 0% in experiment [4]; 5% in experiment [5]; 0% in experiment [6].

(Values after publication PMC5540273, “Progress towards a public chemogenomic set for protein kinases and a call for contributions” (PLoS ONE, 2017).)
